{"source": "ChEMBL document CHEMBL5260858", "about": "“Targeting mycobacterial membranes and membrane proteins: Progress and limitations” (Bioorg Med Chem, 2023)", "key": {"[1]": {"system": "Mycobacterium tuberculosis", "assay": "Antitubercular activity against multidrug-resistant clinical isolate Mycobacterium tuberculosis CDCT-2 assessed as bacterial growth inhibition", "type": "functional"}, "[2]": {"system": "Mycobacterium tuberculosis", "assay": "Antitubercular activity against multidrug-resistant clinical isolate Mycobacterium tuberculosis CDCT-3 assessed as bacterial growth inhibition", "type": "functional"}, "[3]": {"system": "Mycobacterium tuberculosis", "assay": "Antitubercular activity against multidrug-resistant clinical isolate Mycobacterium tuberculosis CDCT-27 assessed as bacterial growth inhibition", "type": "functional"}, "[4]": {"system": "Mycobacterium tuberculosis", "assay": "Antitubercular activity against extensively drug resistant Mycobacterium tuberculosis assessed as bacterial growth inhibition incubated for 6 days by resazurin based fluorescence assay", "type": "functional", "conditions": "144 h, time 6 day"}, "[5]": {"system": "Mycobacterium tuberculosis", "assay": "Antitubercular activity against multidrug resistant Mycobacterium tuberculosis assessed as bacterial growth inhibition incubated for 6 days by resazurin based fluorescence assay", "type": "functional", "conditions": "144 h, time 6 day"}, "[6]": {"system": "Mycobacterium tuberculosis", "assay": "Antitubercular activity against Mycobacterium tuberculosis H37Rv overexpressing DprE1 assessed as bacterial growth inhibition", "type": "functional"}, "[7]": {"system": "Mycobacterium tuberculosis", "assay": "Antitubercular activity against ethambutol resistant Mycobacterium tuberculosis ATCC 35837 inhibition infected in RAW264.7 cells assessed as inhibition of intracellular bacterial growth incubated for 6 days by microplate alamar blue assay", "type": "functional", "set-up": "scale not given: the % may be the effect or the level left", "conditions": "time 6 day"}, "[8]": {"system": "Mycobacterium tuberculosis", "assay": "Antitubercular activity against rifampicin resistant Mycobacterium tuberculosis ATCC 35838 infected in RAW264.7 cells assessed as inhibition of intracellular bacterial growth incubated for 6 days by microplate alamar blue assay", "type": "functional", "set-up": "scale not given: the % may be the effect or the level left", "conditions": "time 6 day"}, "[9]": {"system": "Mycobacterium tuberculosis", "assay": "Antitubercular activity against isoniazid resistant Mycobacterium tuberculosis ATCC 35822 infected in RAW264.7 cells assessed as inhibition of intracellular bacterial growth incubated for 6 days by microplate alamar blue assay", "type": "functional", "set-up": "scale not given: the % may be the effect or the level left", "conditions": "time 6 day"}, "[10]": {"system": "Mycobacterium tuberculosis", "assay": "Antimycobacterial activity against multidrug resistant Mycobacterium tuberculosis 16833 assessed as bacterial growth inhibition incubated for 7 days by microplate Alamar blue assay", "type": "functional", "conditions": "Mycobacterium tuberculosis, 16833, 168 h; time 7 day"}, "[11]": {"system": "Mycobacterium tuberculosis", "assay": "Antimycobacterial activity against multidrug resistant Mycobacterium tuberculosis 16995 assessed as bacterial growth inhibition incubated for 7 days by microplate Alamar blue assay", "type": "functional", "conditions": "Mycobacterium tuberculosis, 16995, 168 h; time 7 day"}, "[12]": {"system": "Mycobacterium tuberculosis", "assay": "Antitubercular activity against multidrug resistant Mycobacterium tuberculosis clinical isolate assessed as bacterial growth inhibition", "type": "functional"}, "[13]": {"system": "Mycobacterium tuberculosis", "assay": "Antimycobacterial activity against BTZ-resistant Mycobacterium tuberculosis NTB1 assessed as bacterial growth inhibition incubated for 6 days by resazurin dye based assay", "type": "functional", "conditions": "NTB1, 144 h, time 6 day"}, "[14]": {"system": "Mycobacterium tuberculosis", "assay": "Antitubercular activity against multidrug resistant Mycobacterium tuberculosis SK-7782 assessed as bacterial growth inhibition by resazurin microtiter assay", "type": "functional"}, "[15]": {"system": "Mycobacterium tuberculosis", "assay": "microbe, parasite or virus in culture", "conditions": "144 h"}, "[16]": {"system": "Mycobacterium tuberculosis", "assay": "microbe, parasite or virus in culture", "conditions": "144 h", "remark": "listed apart in the source"}, "[17]": {"system": "Mycobacterium tuberculosis", "assay": "Antimycobacterial activity against clinically isolated multidrug resistant Mycobacterium tuberculosis assessed as bacterial growth inhibition incubated for 14 days by CLSI protocol based assay", "type": "functional", "conditions": "336 h, time 14 day"}}, "data": [{"smiles": "CCc1ccc(NC(=O)COc2cc(C)nc3ccc(OC)cc23)cc1", "values": [{"measurement": "MIC", "setting": "[1]", "result": "< 2", "unit": "ng/mL"}, {"measurement": "MIC", "setting": "[2]", "result": 8, "unit": "ng/mL"}, {"measurement": "MIC", "setting": "[3]", "result": 8, "unit": "ng/mL"}]}, {"smiles": "c1cc2c(s1)CCOC21CCN(Cc2ccc3c(c2)OCCO3)CC1", "values": [{"measurement": "MIC", "setting": "[4]", "result": 0.3, "unit": "µM"}, {"measurement": "MIC", "setting": "[5]", "result": 0.3, "unit": "µM"}]}, {"smiles": "C[C@@H](NC(=O)c1cc([N+](=O)[O-])cc(C(F)(F)F)c1)c1ccccc1", "values": [{"measurement": "MIC", "setting": "[6]", "result": 310, "unit": "ng/mL"}]}, {"smiles": "CCc1ccc([C@H]2C[C@@H](C(F)(F)F)n3ncc(C(=O)NCc4ccc(OC)cc4)c3N2)cc1", "values": [{"measurement": "MIC", "setting": "[4]", "result": 0.3, "unit": "µM"}, {"measurement": "MIC", "setting": "[5]", "result": 0.16, "unit": "µM"}]}, {"smiles": "CCCc1ccc(NC(=O)COc2cc(C)nc3ccc(OC)cc23)cc1", "values": [{"measurement": "MIC", "setting": "[1]", "result": "< 2", "unit": "ng/mL"}, {"measurement": "MIC", "setting": "[2]", "result": 8, "unit": "ng/mL"}, {"measurement": "MIC", "setting": "[3]", "result": 4, "unit": "ng/mL"}]}, {"smiles": "CC(C)=CCC/C(C)=C/CNCCNC1C2CC3CC(C2)CC1C3", "note": "(stereo not given) [SQ109]", "values": [{"measurement": "Activity", "setting": "[7]", "result": 99, "unit": "%"}, {"measurement": "Activity", "setting": "[8]", "result": 99, "unit": "%"}, {"measurement": "Activity", "setting": "[9]", "result": 99, "unit": "%"}]}, {"smiles": "O=c1nc(N2CC3CN(Cc4ccc(Cl)c(F)c4)CC3C2)sc2c([N+](=O)[O-])cc(C(F)(F)F)cc12", "note": "(stereo not given)", "values": [{"measurement": "MIC", "setting": "[10]", "result": 0.102, "unit": "µM"}, {"measurement": "MIC", "setting": "[11]", "result": 0.073, "unit": "µM"}]}, {"smiles": "COc1nc2ccc(Br)cc2cc1[C@@H](c1ccccc1)[C@@](O)(CCN(C)C)c1cccc2ccccc12", "note": "[BEDAQUILINE]", "values": [{"measurement": "MIC", "setting": "[12]", "result": 10, "unit": "ng/mL"}]}, {"smiles": "O=c1nc(N2CCN(S(=O)(=O)C3CC3)CC2)sc2c([N+](=O)[O-])cc(C(F)(F)F)cc12", "values": [{"measurement": "MIC", "setting": "[13]", "result": 14700, "unit": "ng/mL"}]}, {"smiles": "CCS(=O)(=O)N1CCN(c2nc(=O)c3cc(C(F)(F)F)cc([N+](=O)[O-])c3s2)CC1", "values": [{"measurement": "MIC", "setting": "[13]", "result": 25100, "unit": "ng/mL"}]}, {"smiles": "O=c1nc(N2CC3CN(Cc4ccc(OC(F)(F)F)cc4)CC3C2)sc2c([N+](=O)[O-])cc(C(F)(F)F)cc12", "note": "(stereo not given)", "values": [{"measurement": "MIC", "setting": "[10]", "result": 0.085, "unit": "µM"}, {"measurement": "MIC", "setting": "[11]", "result": 0.053, "unit": "µM"}]}, {"smiles": "O=c1nc(N2CCN(S(=O)(=O)c3cccs3)CC2)sc2c([N+](=O)[O-])cc(C(F)(F)F)cc12", "values": [{"measurement": "MIC", "setting": "[13]", "result": "> 100000", "unit": "ng/mL"}]}, {"smiles": "COc1ccc(/C=C2/S/C(=N/N=C/c3ccccc3O)NC2=O)cc1", "values": [{"measurement": "MIC90", "setting": "[14]", "result": 1000, "unit": "ng/mL"}]}, {"smiles": "CCCCCc1ccc(NC(=O)COc2cc(C)nc3ccc(OC)cc23)cc1", "values": [{"measurement": "MIC", "setting": "[1]", "result": "< 2", "unit": "ng/mL"}, {"measurement": "MIC", "setting": "[2]", "result": "< 2", "unit": "ng/mL"}, {"measurement": "MIC", "setting": "[3]", "result": "< 2", "unit": "ng/mL"}]}, {"smiles": "CC1(C)CC(=O)C(=CNc2ccccc2O)C(=O)C1", "values": [{"measurement": "MIC90", "setting": "[14]", "result": 8000, "unit": "ng/mL"}]}, {"smiles": "CNC(=O)c1c(-c2ccc(O)cc2)oc2ccc(O)c(CN3CCCCC3)c12", "values": [{"measurement": "MIC", "setting": "[15]", "result": 0.125, "unit": "µM"}, {"measurement": "MIC", "setting": "[16]", "result": 0.06, "unit": "µM"}]}, {"smiles": "C[C@@]1(COc2ccc(N3CCC(Oc4ccc(OC(F)(F)F)cc4)CC3)cc2)Cn2cc([N+](=O)[O-])nc2O1", "values": [{"measurement": "MIC", "setting": "[17]", "result": 6, "unit": "ng/mL"}]}]}
